Marks after values point to notes of the source that are not given here.
What was measured:
[1] = tested on: premenopausal women with uterine fibroids; assay: Phase 2a trial of Elagolix with or without add-back in uterine fibroids with heavy menstrual bleeding; format: in vivo, human; settings: for Percent of subjects achieving composite bleeding endpoint (MBL <80 mL at Final Month and ≥50% reduction in MBL from baseline, AH method): last 28 days of treatment, placebo 30%; for Percent of subjects with ≥25% reduction in uterine volume: placebo 9%; for Percent of subjects with ≥25% reduction in fibroid volume: placebo 29%; for Average Total Blood Loss Measured by AH Method During Treatment: 3 months of treatment, placebo 569.7; for Average Total MBL in Days 66-95 Post-Baseline: placebo 190.3; for Average total MBL from days 6-35 post-baseline: placebo 190.5; for Average Total MBL from Days 36-65 Post-Baseline: placebo 194.6
Protocol: Methods for analyzing menstrual blood loss are known in the art and include, for example, the alkaline hematin method. The alkaline hematin method is based on the quantitation of menstrual blood collected on sanitary products (Hallberg L., Nilsoon L., Determination of Menstrual Blood Loss. Scand. J. Clin. Lab. Invest., 1964; 16:244-248). The method uses a strong alkaline solution to chemically convert the heme from bloodstained sanitary products to alkaline hematin, which is measured colorimetrically. When compared to a subject's serum hemoglobin (Hgb), the volume of blood loss in the menstrual products can be determined. […] The study involved the following six (6) cohorts: Cohort 1: […] Cohort 2: Elagolix 300 mg BID or placebo. Cohort 3: […] Cohort 4: […] Cohort 6: […] There are a number of efficacy endpoints, but a composite endpoint consisting of two bleeding assessments was used to assess one measure of efficacy. […] Eighty-five percent (85%), 97%, and 30% of subjects achieved the composite bleeding assessment endpoint in the 200 mg BID, 300 mg BID, and placebo groups, respectively (P<0.05 for 200 mg BID versus placebo in cohort 1, and 300 mg BID versus placebo in cohort 2). […] Quality of life (QoL) measures were also determined using the “Responsiveness of the uterine fibroid symptom and health-related quality of life questionnaire” (UFS-QOL) (Harding, Gale, Coyne Karin S., Thompson Christine L., Spies James B, United BioSource Corporation, 7101 Wisconsin Avenue, Suite 600, Bethesda, Md., 20814, USA, Health and Quality Life Outcomes, 2008, 6, page 99).

[2] = tested on: premenopausal women with HMB and UF; assay: Phase 2b trial, post hoc subgroup with uterine fibroids and non-dominant adenomyosis; format: in vivo, human; settings: 6 months
Protocol: Patients and Methods: […] Elagolix studied in this clinical trial comprised the sodium salt of Compound A. All subjects were evaluated with ultrasound and a subset volunteered to also be evaluated by MRI. […] Efficacy and safety were evaluated post hoc in a subgroup of women who had confirmed non-dominant adenomyosis (ultrasound/MRI) at baseline. Menstrual blood loss (MBL) was quantified from sanitary products (alkaline hematin). […] Adverse events (AEs) were recorded.

rats [3] = assay: 2-year carcinogenicity study in rats; format: in vivo; settings: rat
Source text: The rat tumors were identified as being species-specific and of negligible relevance to humans. This conclusion is based on a follow-on thyroid and hepatic effects-related investigative study performed to document the possibility that thyroid and liver tumors may be specific to rat and occurred via induction of hepatic drug metabolizing enzymes at the high dose.

rats [4] = assay: Fertility study and repeat-dose study in rats; format: in vivo
Source text: (§1) Based on pharmacologic actions of elagolix in humans a reversible effect on fertility may be expected in women.

monkeys = assay: Repeat-dose study in monkeys; format: in vivo; settings: 75, 150, 300 and 600 mg/kg/day, all doses
Source text: as §1

[5] = tested on: premenopausal women with endometriosis with associated pain; assay: Phase 3 Study EM-I (and extension EM-III); format: in vivo, human; settings: for Proportion of responders for Dyspareunia (Daily Endometriosis Pain Impact Scale) / Proportion of responders for dysmenorrhea (Daily Endometriosis Pain Impact Scale) / Proportion of responders for Non-Menstrual Pelvic Pain (Daily Endometriosis Pain Impact Scale): EM-I
Source text: Each placebo-controlled study assessed the reduction in endometriosis-associated pain over 6 months of treatment. More than 75 percent of women who completed Study EM-I and EM-II enrolled in the extension studies for an additional 6 month treatment period. Subjects were followed for up to 12 months post-treatment. The co-primary efficacy endpoints were the proportion of responders for dysmenorrhea and pelvic pain not related to menses (also known as non-menstrual pelvic pain [NMPP]) at Month 3 compared to placebo. The primary analysis independently evaluated these endpoints using a daily diary that asked patients to assess their pain and its impact on their daily activities, over the previous 24 hours. […] Women were defined as responders if they experienced clinically meaningful reduction in dysmenorrhea and/or NMPP with no increased analgesic use for endometriosis associated pain. Dyspareunia was evaluated as a secondary endpoint using the Daily Endometriosis Pain Impact Scale. Endometrial biopsies were performed in subjects in Study EM-I and its extension at Month 6 and Month 12.

[6] = 100 BID, screening 276.4 mL per cycle
[7] = 200 BID, screening 287.4 mL per cycle
[8] = 300 BID, screening 224.8 mL per cycle
[9] = 400 QD, screening 220.3 mL per cycle
[10] = 600 QD, screening 228.7 mL per cycle

## COc1cccc(-c2c(C)n(Cc3c(F)cccc3C(F)(F)F)c(=O)n(C[C@H](NCCCC(=O)O)c3ccccc3)c2=O)c1F [Elagolix, 4-((R)-2-[5-(2-fluoro-3-methoxy-phenyl)-3-(2-fluoro-6-trifluoromethyl-benzyl)-4-methyl-2,6-dioxo-3,6-dihydro-2H-pyrimidin-1-yl]-1-phenyl-ethylamino)-butyric acid]
[1]; 200 mg BID
  Percent of subjects achieving composite bleeding endpoint (MBL <80 mL at Final Month and ≥50% reduction in MBL from baseline, AH method): 85%
  Percent of subjects with ≥25% reduction in uterine volume: 50%
  Percent of subjects with ≥25% reduction in fibroid volume: 63%
[1]; 300 mg BID without add-back therapy
  Inhibition of bleeding: maximum inhibition of bleeding (most of women achieved amenorrhea)
[1]; 300 mg BID, 400 mg QD and 600 mg QD without add-back
  Women who reported an adverse event of hot flash: 50-62.5%
[1]; 300 mg BID, compared with other Elagolix treatments
  Effect on uterine and fibroid volumes (FIG. 4): showed the strongest effects
[1]; 300 mg BID
  Percent of subjects achieving composite bleeding endpoint (MBL <80 mL at Final Month and ≥50% reduction in MBL from baseline, AH method): 97%
  Percent of subjects with ≥25% reduction in uterine volume: 68%
  Percent of subjects with ≥25% reduction in fibroid volume: 55%
[1]; 400 mg QD and 600 mg QD
  Inhibition of bleeding compared with 300 mg BID: slightly less effective
[1]; 100 BID, N = 26
  Average Total Blood Loss Measured by AH Method During Treatment: 198.4 mL
[1]; [6]
  Average Total MBL in Days 66-95 Post-Baseline: 65.4 mL
  Average total MBL from days 6-35 post-baseline: 33.2 mL
  Average Total MBL from Days 36-65 Post-Baseline: 100.9 mL
[1]; 200 BID, N = 28
  Average Total Blood Loss Measured by AH Method During Treatment: 47.0 mL
[1]; [7]
  Average Total MBL in Days 66-95 Post-Baseline: 41.5 mL
  Average total MBL from days 6-35 post-baseline: 0 mL
  Average Total MBL from Days 36-65 Post-Baseline: 5.5 mL
[1]; 300 BID, N = 26
  Average Total Blood Loss Measured by AH Method During Treatment: 4.3 mL
[1]; [8]
  Average Total MBL in Days 66-95 Post-Baseline: 4.3 mL
  Average total MBL from days 6-35 post-baseline: 0 mL
  Average Total MBL from Days 36-65 Post-Baseline: 0 mL
[1]; 400 QD, N = 26
  Average Total Blood Loss Measured by AH Method During Treatment: 38.4 mL
[1]; [9]
  Average Total MBL in Days 66-95 Post-Baseline: 21.6 mL
  Average total MBL from days 6-35 post-baseline: 14.9 mL
  Average Total MBL from Days 36-65 Post-Baseline: 12.4 mL
[1]; 600 QD, N = 24
  Average Total Blood Loss Measured by AH Method During Treatment: 69.6 mL
[1]; [10]
  Average Total MBL in Days 66-95 Post-Baseline: 14.9 mL
  Average total MBL from days 6-35 post-baseline: 27.6 mL
  Average Total MBL from Days 36-65 Post-Baseline: 35.0 mL
[2]; Cohort 1 (300 mg BID, with or without E2/NETA), placebo 40% (n=10)
  Proportion of women with ≥50% reduction from baseline in HMB and <80 mL MBL in the last 28 days of treatment: 80%
[2]; Cohort 2 (600 mg QD, with or without E2/NETA), placebo 13% (n=16)
  Proportion of women with ≥50% reduction from baseline in HMB and <80 mL MBL in the last 28 days of treatment: 92%
Rats [3]; both, in vivo, 2 years
  Margin of safety at the high dose with respect to 200 mg BID in women: 13 fold
Rats [3]; high dose, identified as species-specific
  Tumors in 2-year carcinogenicity study: increase in thyroid (male and female) and liver (males only) tumors
Rats [4]; doses 50, 150, 300 mg/kg/day
  Effect in fertility study: no effect
Rats [4]; doses 600, 800 mg/kg/day
  Ovarian findings in repeat-dose study: involution and a decrease in corpora lutea in ovaries
monkeys
  Reproductive organ findings in repeat-dose study: reversible atrophy of reproductive organs (cervix, uterus and vagina)
[5]; 150 mg QD, Month 3, n/N 74/187, placebo 31.9
  Proportion of responders for Dyspareunia (Daily Endometriosis Pain Impact Scale): 39.6%
[5]; 150 mg QD, Month 3, n/N 115/248, placebo 19.6
  Proportion of responders for dysmenorrhea (Daily Endometriosis Pain Impact Scale): 46.4*** %
[5]; 150 mg QD, Month 3, n/N 125/248, placebo 36.5
  Proportion of responders for Non-Menstrual Pelvic Pain (Daily Endometriosis Pain Impact Scale): 50.4*** %
[5]; 150 mg QD, Month 6, n/N 74/187, placebo 33.3
  Proportion of responders for Dyspareunia (Daily Endometriosis Pain Impact Scale): 39.6%
[5]; 150 mg QD, Month 6, n/N 104/247, placebo 23.1
  Proportion of responders for dysmenorrhea (Daily Endometriosis Pain Impact Scale): 42.1*** %
[5]; 150 mg QD, Month 6, n/N 113/247, placebo 34.9
  Proportion of responders for Non-Menstrual Pelvic Pain (Daily Endometriosis Pain Impact Scale): 45.7** %
[5]; 200 mg BID, Month 3, n/N 81/172, placebo 31.9
  Proportion of responders for Dyspareunia (Daily Endometriosis Pain Impact Scale): 47.1*** %
[5]; 200 mg BID, Month 3, n/N 133/244, placebo 36.5
  Proportion of responders for Non-Menstrual Pelvic Pain (Daily Endometriosis Pain Impact Scale): 54.5*** %
[5]; 200 mg BID, Month 3, n/N 185/244, placebo 19.6
  Proportion of responders for dysmenorrhea (Daily Endometriosis Pain Impact Scale): 75.8*** %
[5]; 200 mg BID, Month 6, n/N 81/161, placebo 33.3
  Proportion of responders for Dyspareunia (Daily Endometriosis Pain Impact Scale): 50.3*** %
[5]; 200 mg BID, Month 6, n/N 151/243, placebo 34.9
  Proportion of responders for Non-Menstrual Pelvic Pain (Daily Endometriosis Pain Impact Scale): 62.1*** %
[5]; 200 mg BID, Month 6, n/N 183/243, placebo 23.1
  Proportion of responders for dysmenorrhea (Daily Endometriosis Pain Impact Scale): 75.3*** %
[5]; Study EM-I and its extension, Month 6 and Month 12
  Endometrial biopsy findings: no abnormal biopsy findings post-baseline

Reference: US11690854B2, “Methods of treating heavy menstrual bleeding” (priority 2018, dated 2023)
